{"source": "paper PMC5218480", "about": "(PLoS ONE, 2017)", "test_system": "MV-4-11 cells", "test": "Gene expression microarray analysis (Affymetrix PrimeView) and GSEA", "format": "cell-based, human", "design": "RFU PODN (11730768_x_at) / Fold change /veh PODN (11730768_x_at) / RFU LINC00158 (11744669_a_at) / Fold change /veh LINC00158 (11744669_a_at) / RFU DUSP10 (11751237_a_at) / Fold change /veh DUSP10 (11751237_a_at) / RFU ID3 (11757404_x_at) / Fold change /veh ID3 (11757404_x_at) / RFU PLEKHG5 (11737974_s_at) / Fold change /veh PLEKHG5 (11737974_s_at) / RFU LRRC4B (11730491_at) / Fold change /veh LRRC4B (11730491_at) / RFU GIMAP4 (11747438_a_at) / Fold change /veh GIMAP4 (11747438_a_at) / RFU KRT8 (11758183_x_at) / Fold change /veh KRT8 (11758183_x_at) / RFU CNN1 (11734310_a_at) / Fold change /veh CNN1 (11734310_a_at) / RFU VPS37D (11726825_at) / Fold change /veh VPS37D (11726825_at) / RFU C10orf10 (11716522_x_at) / Fold change /veh C10orf10 (11716522_x_at) / RFU KIR2DL2 /// KIR2DL4 /// KIR2DL5A /// KIR2DL5B /// KIR2DS1 /// KIR2DS2 /// KIR2DS3 /// KIR2DS4 /// KIR3DL3 /// KIR3DL3 /// KIR3DS1 (11738374_at) / Fold change /veh KIR2DL2 /// KIR2DL4 /// KIR2DL5A /// KIR2DL5B /// KIR2DS1 /// KIR2DS2 /// KIR2DS3 /// KIR2DS4 /// KIR3DL3 /// KIR3DL3 /// KIR3DS1 (11738374_at) / RFU C1QL1 (11718748_at) / Fold change /veh C1QL1 (11718748_at) / RFU TMPRSS4 (11747572_a_at) / Fold change /veh TMPRSS4 (11747572_a_at) / RFU HAMP (11756126_x_at) / Fold change /veh HAMP (11756126_x_at) / RFU RNFT2 (11725882_a_at) / Fold change /veh RNFT2 (11725882_a_at) / RFU NR4A2 (11747474_a_at) / Fold change /veh NR4A2 (11747474_a_at) / RFU ABCC12 (11746883_a_at) / Fold change /veh ABCC12 (11746883_a_at) / RFU TMEM136 (11760407_x_at) / Fold change /veh TMEM136 (11760407_x_at) / RFU CLDN22 /// WWC2 (11732394_at) / Fold change /veh CLDN22 /// WWC2 (11732394_at) / RFU HLA-DPB1 (11760878_x_at) / Fold change /veh HLA-DPB1 (11760878_x_at) / RFU SPINT1 (11716480_a_at) / Fold change /veh SPINT1 (11716480_a_at) / RFU GAP43 (11754022_s_at) / Fold change /veh GAP43 (11754022_s_at) / RFU A4GNT (11735810_at) / Fold change /veh A4GNT (11735810_at) / RFU PRB3 (11715151_x_at) / Fold change /veh PRB3 (11715151_x_at) / RFU TUBB4B (11761932_at) / Fold change /veh TUBB4B (11761932_at) / RFU CAPN14 (11732068_a_at) / Fold change /veh CAPN14 (11732068_a_at) / RFU TMCC2 (11721928_a_at) / Fold change /veh TMCC2 (11721928_a_at) / RFU IRGQ (11745062_a_at) / Fold change /veh IRGQ (11745062_a_at) / RFU FAM174B (11720279_a_at) / Fold change /veh FAM174B (11720279_a_at) / RFU TMPRSS4 (11748680_a_at) / Fold change /veh TMPRSS4 (11748680_a_at) / RFU FAM212B (11763350_a_at) / Fold change /veh FAM212B (11763350_a_at) / RFU PLEKHG5 (11743358_a_at) / Fold change /veh PLEKHG5 (11743358_a_at) / RFU ZSCAN30 (11745921_a_at) / Fold change /veh ZSCAN30 (11745921_a_at) / RFU CMKLR1 (11741424_a_at) / Fold change /veh CMKLR1 (11741424_a_at) / RFU LOC101060620 /// MAPK8IP1 (11723275_at) / Fold change /veh LOC101060620 /// MAPK8IP1 (11723275_at) / RFU SPTSSB (11747773_x_at) / Fold change /veh SPTSSB (11747773_x_at) / RFU PRSS12 (11739890_at) / Fold change /veh PRSS12 (11739890_at) / RFU BIN1 (11741810_x_at) / Fold change /veh BIN1 (11741810_x_at) / RFU WNT11 (11732464_a_at) / Fold change /veh WNT11 (11732464_a_at) / RFU C10orf10 (11716521_a_at) / Fold change /veh C10orf10 (11716521_a_at) / RFU C5orf56 (11738089_at) / Fold change /veh C5orf56 (11738089_at) / RFU CYB561 (11721691_x_at) / Fold change /veh CYB561 (11721691_x_at) / RFU ANKRD19P (11752326_a_at) / Fold change /veh ANKRD19P (11752326_a_at) / RFU OR2T12 /// OR2T33 /// OR2T8 (11738714_s_at) / Fold change /veh OR2T12 /// OR2T33 /// OR2T8 (11738714_s_at) / RFU VCAN (11748164_a_at) / Fold change /veh VCAN (11748164_a_at) / RFU JSRP1 (11732532_at) / Fold change /veh JSRP1 (11732532_at) / RFU KRTAP10-11 (11738290_x_at) / Fold change /veh KRTAP10-11 (11738290_x_at) / RFU MYO3A (11730013_a_at) / Fold change /veh MYO3A (11730013_a_at) / RFU EBF3 (11725865_a_at) / Fold change /veh EBF3 (11725865_a_at) / RFU CAMK2N1 (11719241_x_at) / Fold change /veh CAMK2N1 (11719241_x_at) / RFU C5orf56 (11738088_a_at) / Fold change /veh C5orf56 (11738088_a_at) / RFU OLFML3 (11715873_a_at) / Fold change /veh OLFML3 (11715873_a_at) / RFU LOC100653217 /// NTM (11731650_a_at) / Fold change /veh LOC100653217 /// NTM (11731650_a_at) / RFU MAPK11 (11762145_a_at) / Fold change /veh MAPK11 (11762145_a_at) / RFU FIZ1 (11724087_x_at) / Fold change /veh FIZ1 (11724087_x_at) / RFU OASL (11726364_x_at) / Fold change /veh OASL (11726364_x_at) / RFU SOX15 (11748057_x_at) / Fold change /veh SOX15 (11748057_x_at) / RFU CD79A (11719716_a_at) / Fold change /veh CD79A (11719716_a_at) / RFU HIST1H1D (11736915_at) / Fold change /veh HIST1H1D (11736915_at) / RFU CASKIN2 (11723855_a_at) / Fold change /veh CASKIN2 (11723855_a_at) / RFU LOC730098 (11760151_x_at) / Fold change /veh LOC730098 (11760151_x_at) / RFU OR4N2 (11742367_at) / Fold change /veh OR4N2 (11742367_at) / RFU PRRT2 (11749266_a_at) / Fold change /veh PRRT2 (11749266_a_at) / RFU SNX32 (11753110_a_at) / Fold change /veh SNX32 (11753110_a_at) / RFU CDHR5 (11726645_a_at) / Fold change /veh CDHR5 (11726645_a_at) / RFU RCAN1 (11760418_a_at) / Fold change /veh RCAN1 (11760418_a_at) / RFU FAM167A (11723789_a_at) / Fold change /veh FAM167A (11723789_a_at) / RFU FAM26E (11764081_at) / Fold change /veh FAM26E (11764081_at) / RFU ISYNA1 (11749810_s_at) / Fold change /veh ISYNA1 (11749810_s_at) / RFU ACY1 (11761880_at) / Fold change /veh ACY1 (11761880_at) / RFU 11764098_at / Fold change /veh 11764098_at / RFU SAMD14 (11745864_x_at) / Fold change /veh SAMD14 (11745864_x_at) / RFU NPB (11741838_a_at) / Fold change /veh NPB (11741838_a_at) / RFU TMPRSS6 (11731388_a_at) / Fold change /veh TMPRSS6 (11731388_a_at) / RFU KRTAP10-2 (11738614_at) / Fold change /veh KRTAP10-2 (11738614_at) / RFU ARHGAP8 /// PRR5-ARHGAP8 (11727945_x_at) / Fold change /veh ARHGAP8 /// PRR5-ARHGAP8 (11727945_x_at) / RFU KRTAP5-7 /// NADSYN1 (11734609_at) / Fold change /veh KRTAP5-7 /// NADSYN1 (11734609_at) / RFU RASL12 (11751679_a_at) / Fold change /veh RASL12 (11751679_a_at) / RFU CDKN2B (11736163_a_at) / Fold change /veh CDKN2B (11736163_a_at) / RFU PRF1 (11729649_at) / Fold change /veh PRF1 (11729649_at) / RFU, ZNF638 /// ZNF638-IT1 / Fold change vs veh, ZNF638 /// ZNF638-IT1 / RFU, PANK3 / Fold change vs veh, PANK3 / RFU, SH3YL1 / Fold change vs veh, SH3YL1 / RFU, ZEB2 / Fold change vs veh, ZEB2 / RFU, NRIP1 / Fold change vs veh, NRIP1 / RFU, PTTG1IP / Fold change vs veh, PTTG1IP / RFU, CAPN2 / Fold change vs veh, CAPN2 / RFU, MED14 / Fold change vs veh, MED14 / RFU, SNORA58 / Fold change vs veh, SNORA58 / RFU, C1orf63 / Fold change vs veh, C1orf63 / RFU, LRRFIP1 / Fold change vs veh, LRRFIP1 / RFU, NDUFAF7 / Fold change vs veh, NDUFAF7 / RFU, SLC12A2 / Fold change vs veh, SLC12A2 / RFU, IBTK / Fold change vs veh, IBTK / RFU, ESF1 / Fold change vs veh, ESF1 / Fold change vs veh, TMEM50B / RFU, TAOK1 / Fold change vs veh, TAOK1 / RFU, ACBD3 / Fold change vs veh, ACBD3 / RFU, TMA16 / Fold change vs veh, TMA16 / RFU, RWDD3 / Fold change vs veh, RWDD3 / RFU, BCAT1 / Fold change vs veh, BCAT1 / RFU, EDEM3 / Fold change vs veh, EDEM3 / RFU, TMEM33 / Fold change vs veh, TMEM33 / RFU, WDR75 / Fold change vs veh, WDR75 / RFU, AHCTF1 / Fold change vs veh, AHCTF1 / RFU, TFRC / Fold change vs veh, TFRC / RFU, ZDHHC17 / Fold change vs veh, ZDHHC17 / RFU, NOM1 / Fold change vs veh, NOM1 / RFU, ARL8B / Fold change vs veh, ARL8B / RFU, ZBTB11 / Fold change vs veh, ZBTB11 / RFU, TAMM41 / Fold change vs veh, TAMM41 / RFU, KIAA1704 /// LOC100996395 / Fold change vs veh, KIAA1704 /// LOC100996395 / RFU, ING1 / Fold change vs veh, ING1 / RFU, TRMT61B / Fold change vs veh, TRMT61B / RFU, FUBP3 / Fold change vs veh, FUBP3 / RFU, TP53 / Fold change vs veh, TP53 / RFU, TNKS2 / Fold change vs veh, TNKS2 / RFU, ZFP14 / Fold change vs veh, ZFP14 / RFU, ACTR2 / Fold change vs veh, ACTR2 / RFU, PPP3R1 / Fold change vs veh, PPP3R1 / RFU, PIK3R1 / Fold change vs veh, PIK3R1 / RFU, HNRNPA1 / Fold change vs veh, HNRNPA1 / RFU, RNF170 / Fold change vs veh, RNF170 / RFU, ZNF28 / Fold change vs veh, ZNF28 / RFU, RNGTT / Fold change vs veh, RNGTT / RFU, OGT / Fold change vs veh, OGT / RFU, BRD1 / Fold change vs veh, BRD1 / RFU, MARS / Fold change vs veh, MARS / RFU, ZNF655 / Fold change vs veh, ZNF655 / RFU, FAHD1 / Fold change vs veh, FAHD1 / RFU, BDP1 / Fold change vs veh, BDP1 / RFU, LRRCC1 / Fold change vs veh, LRRCC1 / RFU, ARID1A / Fold change vs veh, ARID1A / RFU, ZNF146 / Fold change vs veh, ZNF146 / RFU, ZNF330 / Fold change vs veh, ZNF330 / RFU, GPN3 / Fold change vs veh, GPN3 / RFU, C9orf123 / Fold change vs veh, C9orf123 / RFU, N4BP2L2 / Fold change vs veh, N4BP2L2 / RFU, ARFIP1 / Fold change vs veh, ARFIP1 / RFU, FAM179B / Fold change vs veh, FAM179B / RFU, BCL10 / Fold change vs veh, BCL10 / RFU, UHRF1BP1L / Fold change vs veh, UHRF1BP1L / RFU, BET1 / Fold change vs veh, BET1 / RFU, CNOT2 / Fold change vs veh, CNOT2 / RFU, ZNF268 / Fold change vs veh, ZNF268 / Fold change vs veh, ZNF507 / RFU, DGCR2 / Fold change vs veh, DGCR2 / RFU, WDSUB1 / Fold change vs veh, WDSUB1 / Fold change vs veh, HSP90B1 /// MIR3652 / RFU, ADSS / Fold change vs veh, ADSS / RFU, GK / Fold change vs veh, GK / RFU, ZNF148 / Fold change vs veh, ZNF148 / RFU, TAF9 / Fold change vs veh, TAF9 / RFU, SLC1A5 / Fold change vs veh, SLC1A5 / RFU, SLMO2 / Fold change vs veh, SLMO2 / RFU, ABCC4 / Fold change vs veh, ABCC4 / RFU, LOC101060439 /// RAP1B / Fold change vs veh, LOC101060439 /// RAP1B / RFU, RFX7 / Fold change vs veh, RFX7 / RFU, GTPBP10 / Fold change vs veh, GTPBP10 / RFU, CNEP1R1 / Fold change vs veh, CNEP1R1 / RFU, BIVM-ERCC5 /// ERCC5 / Fold change vs veh, BIVM-ERCC5 /// ERCC5 / RFU, ILF3 / Fold change vs veh, ILF3 / RFU 11762660_at / Fold change /veh 11762660_at / RFU VCAN (11757783_s_at) / Fold change /veh VCAN (11757783_s_at) / RFU DDX43 (11728927_at) / Fold change /veh DDX43 (11728927_at) / RFU KRT8 (11758188_x_at) / Fold change /veh KRT8 (11758188_x_at) / RFU NKD1 (11759106_at) / Fold change /veh NKD1 (11759106_at) / RFU SRD5A1 (11742802_a_at) / Fold change /veh SRD5A1 (11742802_a_at) / RFU TPSAB1 /// TPSB2 (11721975_s_at) / Fold change /veh TPSAB1 /// TPSB2 (11721975_s_at) / RFU GSTM3 (11746129_a_at) / Fold change /veh GSTM3 (11746129_a_at) / RFU IL23R (11737362_x_at) / Fold change /veh IL23R (11737362_x_at) / RFU TMEM51 (11727254_a_at) / Fold change /veh TMEM51 (11727254_a_at) / RFU PIWIL2 (11732686_x_at) / Fold change /veh PIWIL2 (11732686_x_at) / RFU ORM1 (11744905_x_at) / Fold change /veh ORM1 (11744905_x_at) / RFU CCDC152 (11743942_at) / Fold change /veh CCDC152 (11743942_at) / RFU ECM1 (11717891_a_at) / Fold change /veh ECM1 (11717891_a_at) / RFU IL23R (11748794_a_at) / Fold change /veh IL23R (11748794_a_at) / RFU TNFAIP8L3 (11732012_x_at) / Fold change /veh TNFAIP8L3 (11732012_x_at) / RFU MBOAT4 (11741988_at) / Fold change /veh MBOAT4 (11741988_at) / RFU 11764193_at / Fold change /veh 11764193_at / RFU TMEM53 (11763286_at) / Fold change /veh TMEM53 (11763286_at) / RFU MAGEB2 (11727129_at) / Fold change /veh MAGEB2 (11727129_at) / RFU TMEM200A (11744735_a_at) / Fold change /veh TMEM200A (11744735_a_at) / RFU CCDC152 (11751479_a_at) / Fold change /veh CCDC152 (11751479_a_at) / RFU FAM211A (11726209_a_at) / Fold change /veh FAM211A (11726209_a_at) / RFU RGS16 (11746705_a_at) / Fold change /veh RGS16 (11746705_a_at) / RFU VCAN (11755009_s_at) / Fold change /veh VCAN (11755009_s_at) / RFU RHOB (11743442_s_at) / Fold change /veh RHOB (11743442_s_at) / RFU RGS16 (11720943_a_at) / Fold change /veh RGS16 (11720943_a_at) / RFU RGS16 (11720944_at) / Fold change /veh RGS16 (11720944_at) / RFU, VPS4B / Fold change vs veh, VPS4B / RFU, CREB1 / Fold change vs veh, CREB1 / RFU, DNAJC13 / Fold change vs veh, DNAJC13 / RFU, GNAQ / Fold change vs veh, GNAQ / RFU, CDK5R1 / Fold change vs veh, CDK5R1 / RFU, ZRANB3 / Fold change vs veh, ZRANB3 / RFU, CUL4A / Fold change vs veh, CUL4A / RFU, CCNY / Fold change vs veh, CCNY / RFU, UFL1 / Fold change vs veh, UFL1 / RFU, COG3 / Fold change vs veh, COG3 / RFU, DIAPH2 / Fold change vs veh, DIAPH2 / RFU, SKA2 / Fold change vs veh, SKA2 / RFU, AFF3 / Fold change vs veh, AFF3 / RFU, LMF1 / Fold change vs veh, LMF1 / RFU, IPO11 / Fold change vs veh, IPO11 / RFU, DFFB / Fold change vs veh, DFFB / RFU, FOXP1 / Fold change vs veh, FOXP1 / RFU, CARD8 / Fold change vs veh, CARD8 / RFU, STRN3 / Fold change vs veh, STRN3 / RFU, ADK / Fold change vs veh, ADK / RFU, RASSF2 / Fold change vs veh, RASSF2 / RFU, WIPF1 / Fold change vs veh, WIPF1 / RFU, LARP1B / Fold change vs veh, LARP1B / RFU, RASA1 / Fold change vs veh, RASA1 / RFU, RB1 / Fold change vs veh, RB1 / RFU, PPFIA1 / Fold change vs veh, PPFIA1 / RFU, MAT2A / Fold change vs veh, MAT2A / RFU, CCT5 / Fold change vs veh, CCT5 / RFU, WDR92 / Fold change vs veh, WDR92 / RFU, CUX1 / Fold change vs veh, CUX1 / RFU, TTC7A / Fold change vs veh, TTC7A / RFU, TMEM135 / Fold change vs veh, TMEM135 / RFU, DEPTOR / Fold change vs veh, DEPTOR / RFU, CPM / Fold change vs veh, CPM / RFU, DNAJB6 / Fold change vs veh, DNAJB6 / RFU, CACNA2D3 / Fold change vs veh, CACNA2D3 / RFU, DTX4 / Fold change vs veh, DTX4 / RFU, TFCP2 / Fold change vs veh, TFCP2 / RFU, GMCL1 /// GMCL1P1 / Fold change vs veh, GMCL1 /// GMCL1P1 / RFU, AEBP2 / Fold change vs veh, AEBP2 / RFU, SNHG1 /// SNORD22 /// SNORD25 /// SNORD26 /// SNORD27 /// SNORD28 /// SNORD29 /// SNORD31 / Fold change vs veh, SNHG1 /// SNORD22 /// SNORD25 /// SNORD26 /// SNORD27 /// SNORD28 /// SNORD29 /// SNORD31 / Fold change (Aza/veh), C12orf56 (ProbeSet 11735607_a_at) / Fold change (ACY-1035/veh), C12orf56 (ProbeSet 11735607_a_at) / Fold change (Aza/veh), FGFR1OP (ProbeSet 11751329_s_at) / Fold change (ACY-1035/veh), FGFR1OP (ProbeSet 11751329_s_at) / Fold change (Aza/veh), VPS36 (ProbeSet 11739960_a_at) / Fold change (ACY-1035/veh), VPS36 (ProbeSet 11739960_a_at) / RFU SYPL1 (11715823_x_at) / Fold change /veh SYPL1 (11715823_x_at) / RFU IGFBP7 (11715501_s_at) / Fold change /veh IGFBP7 (11715501_s_at) / RFU REEP3 (11722064_at) / Fold change /veh REEP3 (11722064_at) / RFU IGLL1 (11728026_x_at) / Fold change /veh IGLL1 (11728026_x_at): dose or concentration left out as unconfirmed", "details": "ProbeSet 11758170_s_at; LIST D"}
{"smiles": "Nc1ncn([C@@H]2O[C@H](CO)[C@@H](O)[C@H]2O)c(=O)n1", "note": "[azacitidine]", "values": [{"measurement": "Fold change vs veh, DIAPH2", "result": 0.72}]}
